In PMC9321043, “Synthesis, Structure–Activity Relationships, and Parasitological Profiling of Brussonol Derivatives as New Plasmodium falciparum Inhibitors” (Pharmaceuticals, 2022):

How the values were obtained:
[1] = tested on: P. falciparum 3D7^r_MMV848 strain; experiment: Resistance assessment, 3D7r-MMV848 strain; type: cell-based; conditions: Plasmodium falciparum
P. falciparum = experiment: Speed-of-action assay; type: cell-based, Plasmodium falciparum
Description: The speed-of-action assay assesses the inhibitory activity of the tested compounds after 24, 48, and 72 h of drug exposure. […] Moreover, to confirm the speed-of-action, the morphological development of the parasite in parallel with the IC50 assessment was verified. The parasites in the negative control wells developed according to the expected timeline (Figure 5a). […] Brussonol caused parasite death within the first 24 h of incubation as observed for artesunate (Figure 5a).
In this method, three 96-well plates were prepared by adding 180 µL of the parasite’s inoculum with 0.5% parasitemia and 2% hematocrit. A serial dilution of the compounds was added to each plate; the starting concentration for brussonol was 6× IC50, while for artesunate and pyrimethamine (fast- and slow-acting controls, respectively) were 10× IC50. In addition, a positive and negative control, which corresponded to parasite cultures with no addition of inhibitor and non-parasitized erythrocytes, respectively, were used for the parasite’s control growth. Each plate was treated for a different period (24, 48, or 72 h), and the first two plates were washed twice with fresh medium to remove the inhibitor, followed by incubation of 48 and 24 h, respectively. […] A statistical analysis using a one-way ANOVA test was done to compare each time point using GraphPad Prism version 8.0.1 for Windows, GraphPad Software, San Diego, California USA, www.graphpad.com, accessed on 1 February 2022. In parallel, the morphological development of the parasite under the compounds’ pressure was assessed by adding the compounds tested at the highest concentration evaluated. Blood smears of each well were made and stained at time points 0, 24, 48, and 72 h.

[2] = tested on: cytosolic Ca^2+ in P. falciparum; experiment: [Ca2+]cyt measurements in isolated parasites loaded with Fluo-4AM; type: cell-based, Plasmodium falciparum
Description: One of the compounds identified in the structural similarity search was the cyclopiazonic acid (CPA) (Figure 8a). […] Because of that, brussonol activity on the modulation of the SERCA pump was investigated. To assess the effect of brussonol on calcium mobilization in P. falciparum intraerythrocytic stages, isolated parasites loaded with Fluo-4-AM were exposed to 10 μM brussonol in MOPS Ca^2+ buffer. […] To verify if the brussonol-elicited [Ca^2+]cyt increment originated from the endoplasmic reticulum (ER), targeting the PfSERCA pump, CPA was added before the addition of brussonol. […] In the brussonol-pretreated parasites, the addition of CPA still increased the cytosolic Ca^2 + level (30 ± 5 nM) (Figure 8d).
Isolated parasites were incubated for 1 h at 37 °C with 5 μM of Fluo-4AM in 1 mL MOPS buffer (116 mM NaCl, 5.4 mM KCl, 0.8 mM MgSO4, 5.5 mM D-glucose, 50 mM MOPS, and 2 mM CaCl2, pH 7.2), with 1 mM probenecid to minimize compartmentalization and extrusion of probe. The parasites were washed three times with the same buffer and transferred to a quartz cuvette. Intracellular calcium was measured continuously using a Hitachi F-7000 spectrofluorimeter (Tokyo, Japan) by measurement of the fluorescence (λex = 488 nm and λem = 530 nm) at 37 °C, under agitation. When indicated, 10 µM of cyclopiazonic acid (CPA) or 10 µM of brussonol were added to the cuvette. Maximal fluorescence (Fmax) was determined after the lysis of with digitonin 0.15% (m/v), and minimal fluorescence (Fmin) was determined by adding 25 mM EGTA in 3 M Tris, pH 8.8, until no further decrease in fluorescence was observed. The cytosolic calcium concentration ([Ca^2+]cyt) was calculated from the fluorescence data (F) using a Kd value of 345 nM using the formula:Ca^2 +cyt = 345 × [(F − Fmin)/(Fmax − F)]
The results (n = 2) were analyzed through One-Way ANOVA with Tukey post-test. All compounds described here were purchased from Sigma-Aldrich (verificar local).

P. falciparum Dd2 strain = experiment: Resistance assessment, Dd2 strain; type: cell-based; conditions: Plasmodium falciparum
P. knowlesi = experiment: In vitro evaluation against P. knowlesi, NanoLuc luminescence; type: cell-based; conditions: Plasmodium knowlesi, 40 h
Description: The P. falciparum strains were cultivated in human blood cells (hRBC) O^+, while P. knowlesi was cultivated in rhesus red blood cells (rRBC) as described. P. falciparum complete RPMI (consisting of RPMI-1640, supplemented with 0.2% NaHCO3, 25 mM HEPES (pH 7.4), 11 mM D-glucose, 10 mg/L hypoxanthine, 25 mg/L gentamicin, and 0.5% (m/v) AlbuMAX II). The parasitemias of these cultures were maintained below 10% with 2.5% hematocrit. P. knowlesi complete RPMI (consisting of RPMI-1640 supplemented with 25 mM HEPES, […] hypoxanthine, 0.26% NaHCO3, 10 mg/L gentamicin, and 1% Albumax II). This culture was maintained with RBCs up to 5% hematocrit. The culture medium was changed daily, and all cultures were maintained under a 90% N2/5% CO2/5% O2 gas mixture at 37 °C. All compounds were purchased from Sigma-Aldrich (Cotia, Brazil).
Blood-stage P. knowlesi cultures were diluted to 0.5% parasitemia and brought to 2% hematocrit for growth in 96-well plates containing the desired drug concentration series (200 µL of culture/well). […] Parasite growth in the plates was measured by luminescence (NanoLuc method). […] The plates were then incubated for 3 min at room temperature and the luminescence was assessed using a plate luminometer (Molecular Devices, San Jose, CA, USA) with 1 s integration time. Luminescence readings were normalized to values from control wells containing no drug. […]

In the case of `CC(C)c1cc2c(c(O)c1O)C[C@@]13CCCC(C)(C)[C@@H]1C[C@@H]2O3` [Compound 1, brussonol], the IC50 [1] is reported as 12 ± 3 µM, the speed of action (P. falciparum; IC50 compared after 24, 48 and 72 h of drug exposure) is reported as “fast-acting in vitro inhibition” and the “time of parasite death (morphological development, pyknotic nuclei)” value (P. falciparum; highest concentration evaluated, Giemsa smears at 0, 24, 48, 72 h) is reported as no more than 24 h. For the same compound, the “[Ca^2+]cyt rise after CPA pretreatment” value ([2]; 10 µM brussonol added after 10 µM CPA reached a plateau) was 19 ± 8 nM, the “[Ca^2+]cyt rise” value ([2]; 10 µM compound alone, MOPS Ca^2+ buffer, relative to basal level) was 19 ± 4 nM and the IC50 (P. falciparum Dd2 strain) was 7 ± 2 µM. For the same compound, the IC50 (P. knowlesi) was 20 ± 4 µM.
